Experimental data taken from patent US20160075653A1, “NEMATICIDAL N-(PHENYLCYCLOALKYL)CARBOXAMIDES AND N-(PHENYLCYCLOALKYL)THIOCARBOXAMIDES” (BAYER CROPSCIENCE AKTIENGESELLSCHAFT, priority 2013, published 2016).

assay: Measurement of log P values by HPLC on reversed phase columns (methods [a] pH 2.3, [b] pH 2.7, [c] pH 7.8); type: physicochemical; settings: HPLC on reversed phase column, method [b], pH 2.7
How it was run: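 Determined per EEC Directive 79/831 Annex V.A8 by reversed-phase HPLC, 10-95% acetonitrile gradient: [a] pH 2.3, 0.1% phosphoric acid; [b] LC-MS, pH 2.7, 0.1% formic acid; [c] LC-MS, pH 7.8, 0.001 molar ammonium hydrogen carbonate. Calibrated with C3-C16 alkan-2-ones by retention-time interpolation.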

logP	Compound
3.91^[b]	Cc1nc(C(F)(F)F)c(C(=O)N[C@@H]2CC[C@H]2c2ccc(Cl)cc2Cl)s1 (relative stereo) [Example 668]
3.90^[b]	O=C(N[C@@H]1CC[C@@H]1c1ccc(Cl)cc1C(F)(F)F)c1ccccc1I (relative stereo) [Example 678]
2.72^[b]	N#Cc1ccccc1C(=O)N[C@@H]1C[C@@H]1c1ccc(Cl)cc1Cl (relative stereo) [Example 650]
2.23^[b]	O=C(N[C@@H]1CC[C@@H]1c1ccc(Cl)cc1Cl)c1cccnc1 (relative stereo) [Example 673]

Further lines, the molecule ahead of its results:

Compound	logP
O=C(N[C@@H]1CC[C@H]1c1cccc(F)c1C(F)(F)F)c1sccc1I (relative stereo) [Example 627]	4.02^[b]
O=C(N[C@@H]1CC[C@H]1c1ccc(Cl)cc1C(F)(F)F)c1ccccc1[N+](=O)[O-] (relative stereo) [Example 712]	3.61^[b]
O=C(N[C@@H]1CC[C@H]1c1cccc(F)c1C(F)(F)F)c1cccnc1Cl (relative stereo) [Example 648]	2.86^[b]
O=C(N[C@@H]1CC[C@H]1c1ccc(Br)cc1C(F)(F)F)c1ccccc1C(F)(F)F (relative stereo) [Example 655]	4.26^[b]
O=C(N[C@@H]1CC[C@@H]1c1cccc(F)c1C(F)(F)F)c1ccccc1Br (relative stereo) [Compound 654]	3.30^[b]
O=C(N[C@@H]1CC[C@H]1c1cccc(F)c1C(F)(F)F)c1cccnc1 (relative stereo) [Example 664]	2.38^[b]
O=C(N[C@@H]1CC[C@@H]1c1ccc(Cl)cc1C(F)(F)F)c1cccc(Cl)c1 (relative stereo) [Example 709]	4.05^[b]

same assay, conditions: HPLC on reversed phase column, method [c], pH 7.8

logP	Compound
4.19^[c];	O=C(N[C@@H]1CC[C@H]1c1ccc(Br)cc1C(F)(F)F)c1ccccc1C(F)(F)F (relative stereo) [Example 655]
2.70^[c];	N#Cc1ccccc1C(=O)N[C@@H]1C[C@@H]1c1ccc(Cl)cc1Cl (relative stereo) [Example 650]

same assay, conditions: HPLC on reversed phase columns, method [b], pH 2.7

logP	Compound
2.80^[b]	O=C(N[C@@H]1CCC[C@H]1c1ccc(F)c(F)c1)c1cccnc1F (relative stereo) [Example 106]
2.69^[b]	Cc1nocc1C(=O)N[C@@H]1CCC[C@@H]1c1ccc(F)c(F)c1 (relative stereo) [Example 61]
2.78^[b]	Cc1nocc1C(=O)N[C@@H]1CCC[C@H]1c1ccc(F)c(F)c1 (relative stereo) [Example 60]
4.08^[b]	O=C(NC1CCC1c1ccc(Cl)cc1C(F)(F)F)c1ccccc1Br (stereo not shown) [Example 722]
2.21^[b]	Cc1ncncc1C(=O)N[C@@H]1CCC[C@H]1c1ccc(F)c(F)c1 (relative stereo) [Example 104]
2.92^[b]	CCc1nn(C)c(F)c1C(=O)N[C@@H]1CCC[C@@H]1c1ccc(F)c(F)c1 (relative stereo) [Example 83]
2.22^[b]	Cc1nn(C)c(Cl)c1C(=O)NC1CC1c1ccc(Cl)cc1 (stereo not shown) [Example 14]

Second part, the molecule before the results:

Compound	logP
Cc1nn(C)c(C)c1C(=O)NC1CC1c1ccc(Br)cc1 (stereo not shown) [Example 21]	3.26^[b]
Cc1nn(C)c(F)c1C(=O)N[C@@H]1C[C@H]1c1ccccc1 (relative stereo) [Example 42]	1.99^[b]
Cn1cc(C(=O)NC2CC2c2ccc(Br)cc2)c(C(F)(F)F)n1 (stereo not shown) [Example 25]	3.23^[b]
O=C(N[C@@H]1CCC[C@@H]1c1ccc(F)c(F)c1)C1=C(C(F)(F)F)OCCS1 (relative stereo) [Example 57]	3.19^[b]
Cc1nn(C)c(Cl)c1C(=O)NC1CC1c1ccccc1 (stereo not shown) [Example 9]	2.12^[b]
O=C(N[C@@H]1C[C@H]1c1ccccc1)c1ccccc1I (relative stereo) [Example 44]	2.93^[b]
O=C(NC1CCC1c1ccc(Cl)cc1C(F)(F)F)c1cccnc1C(F)(F)F (stereo not shown) [Example 721]	3.36^[b]
O=C(N[C@@H]1CCC[C@@H]1c1ccc(F)c(F)c1)c1ccsc1I (relative stereo) [Compound 56]	3.29^[b]

same assay, conditions: HPLC reversed phase, method [b] (pH 2.7)

logP	Compound
2.51^[b]	Cc1nn(C)cc1C(=O)NC1CCCCC1c1c(F)cccc1F (stereo not shown) [Example 393]
3.67^[b]	O=C(NC1CCCCC1c1ccccc1Cl)c1c(F)cccc1F (stereo not shown) [Example 379]
3.45^[b]	O=C(NC1CCCC1c1ccc(Cl)cc1)c1ccccc1Cl (stereo not shown) [Example 278]
3.64^[b]	O=C(NC1CCCC1c1ccc(Cl)cc1)c1ccccc1I (stereo not shown) [Example 280]
3.03^[b]	Cc1nc(C)c(C(=O)NC2CCCCC2c2ccc(Cl)cc2)s1 (stereo not shown) [Example 366]
3.73^[b]	O=C(NC1CCCC1c1ccc(Cl)cc1Cl)c1c(F)cccc1F (stereo not shown) [Example 350]
2.67^[b]	Cc1nn(C)cc1C(=O)NC1CCCC1c1ccc(Cl)cc1Cl (stereo not shown) [Example 359]
2.73^[b]	Cc1nc(C)c(C(=O)NC2CCCC2c2ccccc2Cl)s1 (stereo not shown) [Example 291]
3.20^[b]	O=C(NC1CCCC1c1ccc(Cl)cc1Cl)c1cccnc1Cl (stereo not shown) [Example 356]
2.99^[b]	O=C(NC1CCCCC1c1c(F)cccc1F)c1cccnc1Cl (stereo not shown) [Example 397]

Second part, the molecule before the results:

Compound	logP
O=C(NC1CCC1c1ccccc1Cl)c1ccccc1 (stereo not shown) [Example 447]	3.14^[b]
CC(C)Oc1ccc([C@H]2CCC[C@H]2NC(=O)c2ccc(I)s2)cc1 (relative stereo) [Example 338]	4.43^[b]
O=C(N[C@@H]1C[C@@H]1c1ccc(Cl)cc1Cl)c1sccc1I (relative stereo) [Compound 582]	3.78^[b]
O=C(NC1CC1c1ccccc1Cl)c1cccnc1C(F)(F)F (stereo not shown) [Example 499]	2.62^[b]
O=C(N[C@@H]1CC[C@H]1c1ccc(F)cc1C(F)(F)F)c1ccccc1[N+](=O)[O-] (relative stereo) [Example 521]	3.10^[b]
O=C(N[C@@H]1CC[C@H]1c1ccccc1C(F)(F)F)c1c(F)cccc1F (relative stereo) [Example 267]	3.24^[b]
O=C(N[C@@H]1CCC[C@@H]1c1ccc(C(F)(F)F)cc1)c1ncccc1C(F)(F)F (relative stereo) [Example 331]	3.36^[b]
CC(C)Oc1ccc([C@H]2CCC[C@H]2NC(=O)c2ccccn2)cc1 (relative stereo) [Example 334]	2.41^[b]
O=C(NC1CCC1c1ccccc1C(F)(F)F)c1ccc(Cl)cc1 (stereo not shown) [Example 429]	3.56^[b]
O=C(NC1CCCC1c1ccccc1C(F)(F)F)c1ccccc1I (stereo not shown) [Example 285]	3.81^[b]
O=C(NC1CCCCC1c1c(F)cccc1F)c1cccnc1C(F)(F)F (stereo not shown) [Example 398]	3.26^[b]
Cc1nc(C(F)(F)F)c(C(=O)N[C@@H]2CCC[C@@H]2c2ccccc2F)s1 (relative stereo) [Example 343]	3.18^[b]
Cc1nc(C(F)(F)F)c(C(=O)N[C@@H]2CC[C@@H]2c2c(F)cccc2C(F)(F)F)s1 (relative stereo) [Example 573]	3.47^[b]
Cc1nc(C)c(C(=O)NC2CCCCC2c2ccccc2C(F)(F)F)s1 (stereo not shown) [Example 392]	3.49^[b]
O=C(NC1CCCC1c1c(F)cccc1F)c1cccnc1C(F)(F)F (stereo not shown) [Example 362]	2.86^[b]
CC(C)Oc1ccc([C@H]2CCC[C@H]2NC(=O)c2c(F)cccc2F)cc1 (relative stereo) [Example 329]	3.55^[b]
O=C(N[C@@H]1CC[C@@H]1c1c(F)cccc1C(F)(F)F)c1cccc(Cl)c1 (relative stereo) [Example 552]	4.26^[b]
O=C(NC1CCC1c1ccc(Cl)cc1Cl)c1ccccc1 (stereo not shown) [Example 450]	3.75^[b]
O=C(N[C@@H]1CCC[C@@H]1c1ccc(C(F)(F)F)cc1)c1ccccc1[N+](=O)[O-] (relative stereo) [Example 306]	3.31^[b]

same assay, conditions: HPLC reversed phase, method [c] pH 7.8

logP	Compound
4.27^[c];	CC(C)Oc1ccc([C@H]2CCC[C@H]2NC(=O)c2ccc(I)s2)cc1 (relative stereo) [Example 338]
3.28^[c];	O=C(N[C@@H]1CCC[C@@H]1c1ccc(C(F)(F)F)cc1)c1ncccc1C(F)(F)F (relative stereo) [Example 331]
2.46^[c];	CC(C)Oc1ccc([C@H]2CCC[C@H]2NC(=O)c2ccccn2)cc1 (relative stereo) [Example 334]
3.07^[c];	Cc1nc(C(F)(F)F)c(C(=O)N[C@@H]2CCC[C@@H]2c2ccccc2F)s1 (relative stereo) [Example 343]
3.49^[c];	CC(C)Oc1ccc([C@H]2CCC[C@H]2NC(=O)c2c(F)cccc2F)cc1 (relative stereo) [Example 329]
3.27^[c];	O=C(N[C@@H]1CCC[C@@H]1c1ccc(C(F)(F)F)cc1)c1ccccc1[N+](=O)[O-] (relative stereo) [Example 306]

same assay, conditions: method [b], HPLC reversed phase, pH 2.7

logP	Compound
4.59^[b]	Cn1cc(C(=O)N(C2CC2)C2CCCCC2c2ccc(Cl)cc2Cl)c(C(F)F)n1 (stereo not shown) [Example 157]
5.08^[b]	CCc1nn(C)c(F)c1C(=O)N(C1CC1)C1CCCCC1c1ccc(Cl)cc1Cl (stereo not shown) [Example 161]
3.84^[b]	O=C(N[C@@H]1CC[C@H]1c1ccccc1Cl)c1ccc(Cl)cc1Cl (relative stereo) [Example 240]
4.65^[b]	CCc1nn(C)c(F)c1C(=O)N(C1CC1)C1CCCC1c1ccc(Cl)cc1Cl (stereo not shown) [Example 160]

The next lines start with the molecule.

Compound	logP
Cc1nn(C)c(F)c1C(=O)N(C1CC1)C1CCCCC1c1ccccc1 (stereo not shown) [Example 139]	3.53^[b]
Cc1nc(C(F)F)c(C(=O)N(C2CC2)C2CCCCC2c2ccc(Cl)cc2Cl)s1 (stereo not shown) [Example 170]	5.25^[b]
Cn1nc(C(F)F)c(C(=O)NC2CCCCC2c2ccccc2)c1F (stereo not shown) [Example 182]	3.29^[b]
Cc1nc(C(F)F)c(C(=O)N(C2CC2)C2CCCCC2c2ccccc2)s1 (stereo not shown) [Example 141]	4.18^[b]
Cn1cc(C(=O)N(C2CC2)C2CCCCC2c2ccccc2Cl)c(C(F)F)n1 (stereo not shown) [Example 158]	4.03^[b]
O=C(NC1CCC1c1c(F)cccc1F)c1ncc(C(F)(F)F)cc1Cl (stereo not shown) [Example 228]	3.61^[b]
Cc1nc(C(F)F)c(C(=O)N(C2CC2)C2CCCCC2c2ccccc2Cl)s1 (stereo not shown) [Example 171]	4.67^[b]
Cn1nc(C(F)F)c(C(=O)NC2CCCCC2c2ccccc2)c1F (stereo not shown) [Example 181]	3.13^[b]
Cn1nc(C(F)F)c(C(=O)N(C2CC2)C2CCCCC2(C)c2ccccc2)c1F (stereo not shown) [Example 180]	4.18^[b]

same assay, conditions: reversed phase HPLC columns, pH 2.7, HPLC on reversed phase columns, method [b] (pH 2.7); read-out: logP

chromatographic logP	Compound
3.07	O=C(N[C@@H]1CC[C@@H]1c1c(Cl)cccc1Cl)c1nccnc1Cl [Example 734]
3.08	O=C(N[C@@H]1CC[C@@H]1c1c(Cl)cccc1Cl)c1ccccc1[N+](=O)[O-] [Example 733]
3.6	Cc1nc(C(F)(F)F)c(C(=O)N[C@@H]2CC[C@@H]2c2c(Cl)cccc2Cl)s1 [Example 740]
